The record followed here is patent US7799775B2, “Pyrimidine derivatives” (ASKA Pharmaceutical Co., Ltd., priority 2004, dated 2010).

Data set [1] relates to rats under restraint stress. In words: Measurement of defecation acceleration in rats under restraint stress. Format: in vivo, rat. To be noted: 1 hour restraint stress, group average (Normal 1.7, Control 6.8). As to the method: (5) Measurement of Defecation Acceleration in Rats under Restraint Stress […] Feed and drinking water were left for their free ingestion until the morning of the day on which the test was given. On the day of the experiment, test compounds were orally administered and positive control solution (the used compounds were dissolved in 1N-hydrochloric acid and diluted with a suitable amount of saline) was administered intraperitoneally. Five (5) minutes thereafter, under lightly anesthetized condition, the rats were placed under restraint stress, with their upper half of the bodies including the front feet immobilized with gum tape. The restraint stress loading was conducted for an hour, and the number of excrements discharged during that period was counted. […] Those compounds which were used as the positive control chemicals used in the acceleration of defecation in rats under restraint stress are identified with the following structures.

The target in data set [2] is T1, human 5-HT3 receptor (Homo sapiens, UniProt P46098).
T1 construct: purchased BIOLINKS K.K; host or cells: HEK-293 cells (membrane preparation)
T1 sequence (P46098 24-478): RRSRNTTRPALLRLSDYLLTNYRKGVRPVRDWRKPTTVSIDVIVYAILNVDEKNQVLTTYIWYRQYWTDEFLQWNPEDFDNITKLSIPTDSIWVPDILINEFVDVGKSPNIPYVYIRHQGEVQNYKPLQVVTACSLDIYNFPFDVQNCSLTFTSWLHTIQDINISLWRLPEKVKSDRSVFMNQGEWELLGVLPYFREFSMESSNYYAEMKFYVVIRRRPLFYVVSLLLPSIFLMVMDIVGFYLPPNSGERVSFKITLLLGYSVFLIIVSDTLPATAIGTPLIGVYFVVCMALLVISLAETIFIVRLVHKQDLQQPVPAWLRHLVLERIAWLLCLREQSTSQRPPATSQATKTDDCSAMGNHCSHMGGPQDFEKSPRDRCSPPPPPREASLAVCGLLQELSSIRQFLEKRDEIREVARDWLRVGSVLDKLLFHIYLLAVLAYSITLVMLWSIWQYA
In words: Measurement of affinity to human 5-HT3 receptor (in vitro), [3H]BRL-43694 binding. Conditions: test compound 100 nmols/L; [3H]BRL-43694 0.5 nmols/L; HEK-293 cell membrane expressing human 5-HT3 receptor; read-out: Percent Inhibition (%) on Each Receptor's Binding at 10^−7M, 5-HT3. Summed up:
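Membranes from HEK-293 cells expressing the receptor were incubated with 0.5 nmol/L radioligand and compound for 60 min at 25 °C in Tris/MgCl2/EDTA buffer, pH 7.5. Bound radioactivity was collected by filtration and counted. Percent inhibition was corrected for non-specific binding defined with 10 μmol/L tropisetron; compounds were tested at 100 nmol/L.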

In data set [3] the target is T2, human 5-HT1A receptor (Homo sapiens, UniProt P08908).
T2 construct: purchased Packard Bioscience; host or cells: CHO cells (membrane preparation)
T2 sequence (P08908 1-422): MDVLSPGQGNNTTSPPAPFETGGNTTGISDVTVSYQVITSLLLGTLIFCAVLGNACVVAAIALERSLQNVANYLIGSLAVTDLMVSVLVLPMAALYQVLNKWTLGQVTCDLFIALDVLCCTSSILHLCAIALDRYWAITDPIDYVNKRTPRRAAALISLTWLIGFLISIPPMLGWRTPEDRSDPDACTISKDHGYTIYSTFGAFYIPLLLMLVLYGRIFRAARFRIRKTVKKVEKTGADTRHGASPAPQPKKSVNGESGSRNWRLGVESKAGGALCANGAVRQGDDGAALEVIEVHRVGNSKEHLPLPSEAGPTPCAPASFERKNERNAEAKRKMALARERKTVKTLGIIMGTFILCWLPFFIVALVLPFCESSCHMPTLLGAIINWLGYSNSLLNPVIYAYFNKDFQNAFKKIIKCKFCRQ
In words: Affinity measurement of the compounds to human 5-HT1A receptor (in vitro), [3H]8-OH-DPAT binding. To be noted: test compound 100 nmols/L; [3H]8-OH-DPAT 0.25 nmols/L; CHO cell membrane expressing human 5-HT1A receptor; read-out: Percent Inhibition (%) on Each Receptor's Binding at 10^−7M, 5-HT1A. The essentials: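 Membranes from CHO cells expressing human 5-HT1A were incubated 60 min at 27 °C with 0.25 nmol/L [3H]8-OH-DPAT and compound in Tris/MgSO4/EDTA/ascorbate buffer, pH 7.4. Bound radioactivity was collected on PEI-soaked GF/C filters and counted; percent inhibition was corrected for non-specific binding defined with 10 μmol/L 8-OH-DPAT.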

The mark [4] stands for this setting: 0.3 mg/kg intraperitoneal administration.
[5] abbreviates: 1 mg/kg intraperitoneal administration.
[6] abbreviates: 3 mg/kg intraperitoneal administration.

What is called melting point is the temperature of the solid-liquid transition. `CCOC(=O)c1sc2nc(SCCCN3CCN(c4ccccn4)CC3)[nH]c(=O)c2c1C` [Example 2-3, 5-methyl-4-oxo-2-[3-(4-pyridin-2-ylpiperazin-1-yl)propylthio]-3,4-dihydrothieno[2,3-d]pyrimidine-6-carboxylic acid ethyl ester] came in with a melting point of 160.1 to 161.8 °C. `Cc1sc2nc(SCCCN3CCN(c4nc5ccccc5s4)CC3)n(N)c(=O)c2c1C` [Example 1-6, 3-amino-2-[3-(4-benzothiazol-2-ylpiperazin-1-yl)propylthio]-5,6-dimethyl-3H-thieno[2,3-d]pyrimidin-4-one] returned a melting point of 200.5 to 201.2 °C.

For `Cc1[nH]cnc1CN1CCc2c(c3ccccc3n2C)C1=O.Cl` [alosetron, reference compound], the Number of excrements in data set [1] (setting [4]) was determined as 5.2; in data set [1] (setting [5]), 4.1; in data set [1] (setting [6]), 3.7. In turn, `Cl.O=C1CC2(CCCC2)CC(=O)N1CCCCN1CCN(c2ncccn2)CC1` [buspirone, reference compound] displayed a Number of excrements in data set [1] (setting [5]) of 4.3. On to `O=c1[nH]c(CCCCN2CCN(c3ccccn3)CC2)nc2sc3c(c12)CCCC3` [Example 3-10, 2-[4-(4-pyridin-2-ylpiperazin-1-yl)butyl]-5,6,7,8-tetrahydro-3H-benzo[4,5]thieno[2,3-d]pyrimidin-4-one], for which the melting point lay within 192.6 to 194.4 °C. `CCOC(=O)c1sc2nc(SCCCN3CCN(c4ccc5ccccc5n4)CC3)[nH]c(=O)c2c1C` [Example 2-6, 5-methyl-4-oxo-2-[3-(4-quinolin-2-ylpiperazin-1-yl)propylthio]-3,4-dihydrothieno[2,3-d]pyrimidine-6-carboxylic acid ethyl ester]: the melting point was in the range of 200.1 to 201.4 °C.

`O=c1[nH]c(SCCCN2CCN(c3ccccn3)CC2)nc2sc3c(c12)CCCC3` [Example 2-2, 2-[3-(4-pyridin-2-ylpiperazin-1-yl)propylthio]-5,6,7,8-tetrahydro-3H-benzo[4,5]thieno[2,3-d]pyrimidin-4-one] registered a melting point of 190.2 to 191.6 °C.

With `Cc1sc2nc(SCCCN3CCN(c4ccccn4)CC3)n(N)c(=O)c2c1C` [Example 1-2, 3-amino-5,6-dimethyl-2-[3-(4-pyridin-2-ylpiperazin-1-yl)propylthio]-3H-thieno[2,3-d]pyrimidin-4-one], the melting point was 183.1 to 184.8 °C. As to `CN1[C@@H]2CCC[C@H]1C[C@@H](NC(=O)c1nn(C)c3ccccc13)C2.Cl` [granisetron, reference compound], in data set [1] (setting [4]), the Number of excrements was 4.3. Turning to `O=C(O)CC(O)(CC(=O)O)C(=O)O.O=C1[C@@H]2[C@H]3CC[C@H](C3)[C@@H]2C(=O)N1CCCCN1CCN(c2ncccn2)CC1` [tandospirone, reference compound], the Number of excrements in data set [1] (setting [5]) was 5.7; in data set [1] (setting [6]), 4.3; in data set [1] (10 mg/kg intraperitoneal administration), 3.8.

With `Cc1sc2nc(SCCCN3CCN(c4ccc5ccccc5n4)CC3)[nH]c(=O)c2c1C` [Example 2-4, 5,6-dimethyl-2-[3-(4-quinolin-2-yl-piperazin-1-yl)propylthio]-3H-thieno[2,3-d]pyrimidin-4-one], the melting point was in the range of 224.8 to 225.9 °C.

By inhibition is commonly meant the drop in the measured response relative to a control, in per cent. The compound `Cc1sc2nc(SCCCN3CCN(c4ccccn4)CC3)[nH]c(=O)c2c1C` [Example 2-1, 5,6-dimethyl-2-[3-(4-pyridin-2-ylpiperazin-1-yl)propylthio]-3H-thieno[2,3-d]-pyrimidin-4-one] returned a melting point of 209 to 209.4 °C. Besides, the inhibition at 0.1 µM in data set [2] amounted to 52.6%. In data set [3], the inhibition at 0.1 µM turned out to be 60.8%. Turning to `Cc1nccn1C[C@H]1CCc2c(c3cccc4c3n2CCC4)C1=O` [cilansetron, reference compound], the Number of excrements in data set [1] (setting [5]) came out at 4.0.
